The target in experiment [1] is Human Cot (Homo sapiens (Human), UniProt P41279). The experiment in a line: High Throughput Cot Biochemical Assay. Conditions: Cot HTRF (TR-FRET) biochemical assay.
The test system of experiment [2] is TNFα. In words: Cot Monocyte TNFα Cell Based Assay.
Setting [3] is: Homo sapiens, Monocyte, read-out: EC50 TNF, LPS-stimulated human monocytes, TNFα.

The structures appear in SMILES notation. Like-named read-outs stand apart in the source and are kept apart here.

The IC50 is the concentration needed to halve the response being measured. What is called EC50 is the concentration at which the effect is half-maximal.

Sequence of Human Cot (P41279 30-397): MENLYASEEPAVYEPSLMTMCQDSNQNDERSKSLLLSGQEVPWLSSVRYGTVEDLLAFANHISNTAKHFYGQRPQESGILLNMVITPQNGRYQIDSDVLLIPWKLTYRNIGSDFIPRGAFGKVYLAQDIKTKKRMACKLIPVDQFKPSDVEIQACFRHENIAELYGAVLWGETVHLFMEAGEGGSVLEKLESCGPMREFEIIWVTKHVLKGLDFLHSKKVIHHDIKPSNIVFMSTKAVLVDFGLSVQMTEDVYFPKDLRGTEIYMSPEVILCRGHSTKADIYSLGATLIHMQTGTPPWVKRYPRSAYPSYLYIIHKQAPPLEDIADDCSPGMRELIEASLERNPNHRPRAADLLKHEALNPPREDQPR

In turn, `Cc1nc(F)ccc1[C@H](Nc1cc(Cl)c2ncc(C#N)c(N[C@@H]3CCOCC3(C)C)c2c1)c1cn(C2(C(F)F)CC2)nn1` [Example 539, 8-chloro-6-(((S)-(1-(1-(difluoromethyl)-cyclopropyl)-1H-1,2,3-triazol-4-yl)(6-fluoro-2-methylpyridin-3-yl)methyl)-amino)-4-(((R)-3,3-dimethyltetrahydro-2H-pyran-4-yl)amino)quinoline-3-carbonitrile] gave an IC50 in experiment [1] (IC50 HTRF) of 0.001 µM. Moreover, in experiment [2] (setting [3]), the EC50 was found to be 0.012 µM.
For `Cc1nc(F)ccc1[C@H](Nc1cc(Cl)c2ncc(C#N)c(N[C@H]3CCOCC3(C)C)c2c1)c1cn(C2(C(F)F)CC2)nn1` [Example 540, 8-chloro-6-(((S)-(1-(1-(difluoromethyl)-cyclopropyl)-1H-1,2,3-triazol-4-yl)(6-fluoro-2-methylpyridin-3-yl)methyl)-amino)-4-(((S)-3,3-dimethyltetrahydro-2H-pyran-4-yl)amino)quinoline-3-carbonitrile] the same measures were 0.05 µM and 0.76 µM.
The corresponding values for `Cc1nc(F)ccc1[C@H](Nc1cc(Cl)c2ncc(C#N)c(NCC(C)(C)C)c2c1)c1cn(C(C)(C)C(F)(F)F)nn1` [Example 541, (S)-8-chloro-6-(((6-fluoro-2-methyl-pyridin-3-yl)(1-(1,1,1-trifluoro-2-methylpropan-2-yl)-1H-1,2,3-triazol-4-yl)methyl)amino)-4-(neopentylamino)-quinoline-3-carbonitrile] are 0.006 µM and 0.18 µM.
For `Cn1nnc2cccc([C@H](Nc3cc(Cl)c4ncc(C#N)c(NCC(C)(C)C)c4c3)c3cn(C4(C(F)F)CC4)nn3)c21` [Example 542, (S)-8-chloro-6-(((1-(1-(difluoromethyl)-cyclopropyl)-1H-1,2,3-triazol-4-yl)(1-methyl-1H-benzo[d][1,2,3]triazol-7-yl)methyl)amino)-4-(neopentylamino)-quinoline-3-carbonitrile] the same measures were 0.002 µM and 0.04 µM.
In experiment [1] (IC50 HTRF), `Cn1cc2c([C@H](Nc3cc(Cl)c4ncc(C#N)c(NCC(C)(C)C)c4c3)c3cn(C4(C(F)(F)F)CC4)nn3)cccc2n1` [Example 544, (S)-8-chloro-6-(((2-methyl-2H-indazol-4-yl)(1-(1-(trifluoromethyl)cyclopropyl)-1H-1,2,3-triazol-4-yl)methyl)amino)-4-(neopentylamino)quinoline-3-carbonitrile] gave an IC50 of 0.008 µM. Moreover, in experiment [2] (setting [3]), the EC50 is 0.21 µM.
For `Cc1nc(F)ccc1[C@H](Nc1cc(Cl)c2ncc(C#N)c(NCC(C)(C)C)c2c1)c1cn(C(C)(C)C(F)F)nn1` [Example 545, (S)-8-chloro-6-(((1-(1,1-difluoro-2-methylpropan-2-yl)-1H-1,2,3-triazol-4-yl)(6-fluoro-2-methylpyridin-3-yl)methyl)-amino)-4-(neopentylamino)quinoline-3-carbonitrile] the same measures were 0.004 µM and 0.108 µM.
For `Cc1nc(F)ccc1[C@H](Nc1cc(Cl)c2ncc(C#N)c(NCC(C)(C)C)c2c1)c1cn([C@@H](C)CF)nn1` [Example 546, 8-chloro-6-(((S)-(6-fluoro-2-methylpyridin-3-yl)(1-((S)-1-fluoropropan-2-yl)-1H-1,2,3-triazol-4-yl)methyl)amino)-4-(neopentylamino)quinoline-3-carbonitrile] the same measures were 0.002 µM and 0.042 µM.
Turning to `Cc1nc(F)ccc1[C@H](Nc1cc(Cl)c2ncc(C#N)c(NCC(C)(C)C)c2c1)c1cn(C2(C3CC3)CC2)nn1` [Example 547], the IC50 in experiment [1] (read-out: IC50 HTRF) worked out at 0.002 µM. Also, in experiment [2] (read-out: EC50 TNF, LPS-stimulated human monocytes, TNFα), the EC50 is 0.033 µM.
`Cc1nc(F)ccc1[C@H](Nc1cc(Cl)c2ncc(C#N)c(NCC(C)(C)C)c2c1)c1cn(C2(C(F)(F)F)COC2)nn1` [Example 548, (S)-8-chloro-6-(((6-fluoro-2-methylpyridin-3-yl)(1-(3-(trifluoromethyl)oxetan-3-yl)-1H-1,2,3-triazol-4-yl)methyl)amino)-4-(neopentylamino)quinoline-3-carbonitrile] yielded an IC50 in experiment [1] (IC50 HTRF) of 0.008 µM. Besides, the EC50 in experiment [2] (setting [3]) is 0.124 µM.

For the origin of these results see patent US11066414B2, “Cot modulators and methods of use thereof” (Gilead Sciences, Inc., priority 2015, dated 2021).
